The test system of data set [1] is retinal endothelial cells. Kind of data set: Protection of retinal endothelial cells from H2O2 oxidative damage. Format: cell-based, murine. The note with it: for most effective concentration against oxidative insults: tested at 1-1000 μM. On the procedure:
Cell Culture: Murine endothelial cells were cultured as described in Experiment 3. Endothelial cells were treated directly with high levels of H2O2 in the absence or presence of PB1 and PB2 at a concentrations of 1-1000 μM.

Data set [2] is described as follows: Sulfhydryl reducing activity (DTNB). Format: biochemical. The procedure:
Sulfhydryl reducing activity: Sulfhydryl reducing activity was measured with 5-5′-dithio-bis(2-nitrobenzoic acid) (DTNB), which undergoes a colorimetric change when its disulfide linkage is reduced. Reaction of various concentrations of dithiothreitol, tris(carboxyethyl)phosphine, PB1, or PB2 with 30 mM DTNB in methanol was carried out in buffer at pH 5, 7, and 9. The sulfhydryl reduction potentials of PB1 and PB2 were assessed both before and after borane deprotection with DABCO.

Data set [3] can be described thus: Superoxide scavenging (hydroethidine fluorescence, xanthine/xanthine oxidase). Format: biochemical. On the procedure: Superoxide scavenging: The ability of PB1 and PB2 to scavenge superoxide was quantified essentially as described ([…] et al., Invest. Opthalmol. Vis. Sci. 47:3878 (2006)). Essentially, fluorescence of hydroethidine was measured after exposure to superoxide generated by xanthine/xanthine oxidase, in the presence or absence of PB1, PB2, or polyethylene glycol-conjugated superoxide dismutase used as positive control.

Data set [4] relates to retinal endothelial cells. Kind of data set: Radiation-induced death of retinal endothelial cells, calcein-AM/propidium iodide viability assay. Format: cell-based, murine. The note with it: for rescue: 1 μM at the time of irradiation, 72 hours; for radio-protection: administered before or at the time of irradiation. The procedure:
Cell Culture: Murine endothelial cells were isolated from Immortomice, which express a temperature-sensitive Simian virus 40 large T antigen, using sheep anti-rat Dynabeads coated with the rat anti-mouse PECAM-1 monoclonal antibody MEC13.3. […] Irradiation and Viability Assays: The cells were plated onto 1% gelatin coated 96-well plates at a density of 2,000 cells per well. For irradiation, control and treatment groups were removed from the incubator. Treatment groups received single doses of radiation between 1 and 30 Gray using an irradiator containing ^137Cesium (JL Shepherd & Associates) using a rotating platform to ensure uniform delivery. Control groups were left at room temperature during irradiation of the treatment groups. PB1 or PB2 was administered 18 hours before, immediately before, or 18 hours after irradiation. Media was aspirated 48 or 72 hours after irradiation using a 30 gauge needle and the cells were incubated in staining containing calcein-AM and propidium iodide in PBS for 30 minutes at room temperature in the dark. Digital photomicrographs of the wells were taken at a total magnification of 200× on a Zeiss Axiovert inverted microscope under epifluorescence. Calcein-positive (viable) and propidium iodide-positive (dead) cells were counted using NIH ImageJ software. Statistical significance was determined using the Student's t-tests.

Data set [5] concerns RGC-5 cells. Kind of data set: Rescue of RGC-5 cells from METC-active drugs (menadione, rotenone, antimycin A), calcein/propidium iodide viability assay. The note with it: for protection/rescue from death induced by menadione, rotenone and antimycin A: RGC-5 cells, 24 hours co-incubation; for viability (live cells compared to untreated controls): 24 hours; for rescue of RGC-5 cells at higher concentrations: most likely due to toxicity. On the procedure:
Cell Culture: RGC-5 cells were cultured in Dulbecco's modified Eagle's medium (DMEM) (Mediatech, Inc., Manassas, Va.). containing 1 g/L glucose, supplemented with 10% fetal bovine serum, 100 U/mL penicillin, and 100 μg/mL streptomycin (Mediatech, Inc.). Cells were passaged every 48 to 72 hours when cells were approximately 60 to 75% confluent, replated at a 1:20 dilution in a 75 cm^2 flask in 20 ml of cell culture media and incubated at 37° C. in humidified 5% CO2. Experiments were performed in duplicate or triplicate.
Cell Treatment and Assessment of Viability: Cells were plated in 96-well plates at a density of 60 cells/mm^2 in 50 μL of media. Approximately 24 hours after plating, 50 μL of media containing either menadione, rotenone, or antimycin A, either with or without PB1 and PB2, was added to the cells to generate the final concentrations of 10 nM, 1 μM, or 100 μM. Control wells received media containing vehicle alone. Following 24 hours of treatment, media was aspirated from wells using a 25-gauge needle and cells stained with calcein-AM (10 μg/mL) and propidium iodide (1 μg/mL) (both Invitrogen, Carlsbad, Calif.) in PBS for 30 minutes. The staining solution was aspirated using a 25-gauge needle and replaced with PBS. Three randomly chosen fields per well were photographed on an Axiovert 135 microscope under epifluorescence with a Nikon D70s digital SLR camera (Nikon, Melville, N.Y.) at a resolution of 3008×2000 pixels and an exposure time of 1.6 seconds. Live (calcein-positive) and dead (propidium iodide-positive) cells were assessed using Image) software. Pictures were batch analyzed using a macro containing the following actions: subtract background, threshold, erode, erode, watershed, and analyze particles between the sizes of 1000 pixels and infinity. […] Each experiment was analyzed with respect to its own set of controls to account for variation in passage number of the RGC-5 cells and small differences between batches of cryopreserved RGC-5 cells.
Statistics: Viability was assessed as number of live cells/mm^2, and compared to the untreated controls of each experiment. Means were compared using Student's unpaired t-test.
RGC-5 cells plated in 96-well plates were treated for 24 hours with the redox cycling agent menadione, the complex I inhibitor rotenone, or the complex III inhibitor antimycin A, at final concentrations ranging from 100 nM to 31.6 μM (menadione) or 1 μM to 316 μM (rotenone or antimycin A). […] RGC-5 cells were co-incubated with these mitochondrial electron transporter chain (METC)-drugs and the borane-phosphines PB1 or PB2 for 24 hours, followed by assessment of cell viability by calcein/propidium iodide assay. TCEP (100 μM) served as a positive control.

Data set [6] concerns RGC-5 cells. Briefly: Menadione-induced cell death in RGC-5 cells (calcein-AM viable cell count). Format: cell-based. The note with it: for neuroprotection against menadione-induced cell death / effectiveness as neuroprotectant compared with PB3: RGC-5 cells; for % of the cells protected from menadione-induced cell death: 17.8 μM menadione, 24 hours; for effectiveness as neuroprotectant compared with PB3: menadione. The procedure:
Cell Culture: Cells of RGC-5 (ATCC Deposit Accession No. PTA-6600), a neuronal cell line, were suspended in growth medium and plated in 96-well plates at a density of 2,000 cells per well. After 24 hours in culture, cells were treated with 17.8 μM menadione (Sigma-Aldrich, St. Louis, Mo.). Menadione creates oxidative stress resulting in cell death. PB3, PB4, or PB6 was added to the wells directly before menadione treatment. After 24 hours of menadione treatment, the cells were stained with calcein-AM and photographed.

Each structure is given as a SMILES string. Entries after “also recorded” stand apart in the source; their conditions may differ.

Turning to `[BH3-][P+](CCC(=O)OC)(CCC(=O)OC)c1ccccc1` [PB1, bis(3-propionic acid methyl ester)phenylphosphine borane complex], in data set [1] (H2O2, compound 1 μM, 24 hours, 4.2±1.1% without compound), the “viable cell counts, % of control” value was 10.8±2.3%. In data set [1] (H2O2), the “most effective concentration against oxidative insults” value worked out at 1 µM. In addition, the “disulfide reduction as mechanism of protection” value in data set [2] is “involves disulfide reduction”. Besides, in data set [3], the “superoxide scavenging as mechanism of protection” value is “not superoxide scavenging”. Besides, in data set [4] (100 nM, 18 hours after irradiation, all radiation exposures tested), the “protection against radiation exposures” value is recorded as “significant protection”. Besides, in data set [4] (1 μM administered at the time of irradiation, 3 Gy, 72 hours after irradiation, 29±6% without compound), the “viable cell counts, % of non-irradiated control” value is on record as 54±6%. Besides, the rescue in data set [4] (3 Gy) was 35%. Moreover, the “radiomitigation: change in viable cell counts” value in data set [4] (administered 18 hours after exposure to ionizing radiation up to 30 Gy) is recorded as “significant increases in viable cell counts”. The radio-protection result in data set [4] is “effective radio-protectants”. Also, the “protection against radiation exposure” value in data set [4] (all PB1 treatment levels, 18 hours after irradiation, 30 Gy, p<0.05) is listed as “significant protection”. Also, in the data set with RGC-5 cells [5], the “protection/rescue from death induced by menadione, rotenone and antimycin A” value is listed as “significant rescue; also recorded: significant protection”. Also, the “viability (live cells compared to untreated controls)” value is 74±4% in the data set on RGC-5 cells [5] (antimycin A, compound 100 μM, vs. 34±2% without compound); 83±5% in the data set with RGC-5 cells [5] (menadione, compound 100 μM, vs. 34±4% without compound); 36±3% in the data set on RGC-5 cells [5] (rotenone, PB1 concentration not restated (100 μM in preceding sentence), vs. 25±3% without compound). Also, the “rescue of RGC-5 cells at higher concentrations” value with RGC-5 cells [5] was “little or no rescue”.

As to `[BH3-][P+](CCC(=O)OC)(c1ccccc1)c1ccccc1` [PB2, (3-propionic acid methyl ester)diphenylphosphine borane complex], the “viable cell counts, % of control” value in data set [1] (1 µM) is 9.0±1.6%. Moreover, the “most effective concentration against oxidative insults” value in data set [1] (H2O2) is 1 µM. Also, in data set [2], the “disulfide reduction as mechanism of protection” value is recorded as “involves disulfide reduction”. Also, the “superoxide scavenging as mechanism of protection” value in data set [3] is “not superoxide scavenging”. Besides, the rescue in data set [4] (3 Gy) is on record as 46%. Also, in data set [4], the radio-protection result is recorded as “effective radio-protectants”. Also, in the data set with RGC-5 cells [5], the “toxicity to RGC-5 cells” value is “toxic”; the “protection/rescue from death induced by menadione, rotenone and antimycin A” value is reported as “significant rescue; also recorded: significant protection”; the “rescue of RGC-5 cells at higher concentrations” value is “little or no rescue”.

Regarding `B.CCCCCCOC(=O)CCP(CCC(=O)OCCCCCC)c1ccccc1` [PB3, bis(3-propionic acid hexyl ester)phenylphosphine borane complex], the “neuroprotection against menadione-induced cell death” value (“neuroprotection” below) in the data set on RGC-5 cells [6] was “neuroprotective”. The “% of the cells protected from menadione-induced cell death” value (“% of the cells protected” for short) in the data set on RGC-5 cells [6] (compound 1 μM) is listed as 46.4±16.8%; with RGC-5 cells [6] (compound 10 μM) it was 38.3±12.2%; in the data set on RGC-5 cells [6] (compound 100 μM), 30.9±4.3%.

For the molecule `[BH3-][P+](CCC(=O)OCCCCCC)(c1ccccc1)c1ccccc1` [PB4, (3-propionic acid hexyl ester)diphenylphosphine borane complex], in the data set on RGC-5 cells [6], the “neuroprotection” value is “neuroprotective” and the “effectiveness as neuroprotectant compared with PB3” value is “less effective neuroprotectants than PB3”. In the data set with RGC-5 cells [6] (compound 1 μM), the “% of the cells protected” value is 19.0±5.5%.

`[BH3-][P+](CC(=O)NCC)(c1ccccc1)c1ccccc1` [PB6, (2-Ethyl acetamide)diphenylphosphine borane complex]: in the data set with RGC-5 cells [6], the “neuroprotection” value is “neuroprotective” and the “effectiveness as neuroprotectant compared with PB3” value is reported as “less effective neuroprotectants than PB3”. Moreover, in the data set with RGC-5 cells [6] (compound 10 pM), the “% of the cells protected” value is on record as 25.6±8.4%.

Values taken from patent US8415327B2, “Methods of and compositions for reducing cell death” (priority 2009, dated 2013).
